The record followed here is ChEMBL document CHEMBL5291721, “A preclinical secondary pharmacology resource illuminates target-adverse drug reaction associations of marketed drugs” (Nat Commun, 2023).

Test [1] concerns the target T1, Glucocorticoid receptor (Homo sapiens, UniProt P04150).
T1 sequence (P04150 whole entry): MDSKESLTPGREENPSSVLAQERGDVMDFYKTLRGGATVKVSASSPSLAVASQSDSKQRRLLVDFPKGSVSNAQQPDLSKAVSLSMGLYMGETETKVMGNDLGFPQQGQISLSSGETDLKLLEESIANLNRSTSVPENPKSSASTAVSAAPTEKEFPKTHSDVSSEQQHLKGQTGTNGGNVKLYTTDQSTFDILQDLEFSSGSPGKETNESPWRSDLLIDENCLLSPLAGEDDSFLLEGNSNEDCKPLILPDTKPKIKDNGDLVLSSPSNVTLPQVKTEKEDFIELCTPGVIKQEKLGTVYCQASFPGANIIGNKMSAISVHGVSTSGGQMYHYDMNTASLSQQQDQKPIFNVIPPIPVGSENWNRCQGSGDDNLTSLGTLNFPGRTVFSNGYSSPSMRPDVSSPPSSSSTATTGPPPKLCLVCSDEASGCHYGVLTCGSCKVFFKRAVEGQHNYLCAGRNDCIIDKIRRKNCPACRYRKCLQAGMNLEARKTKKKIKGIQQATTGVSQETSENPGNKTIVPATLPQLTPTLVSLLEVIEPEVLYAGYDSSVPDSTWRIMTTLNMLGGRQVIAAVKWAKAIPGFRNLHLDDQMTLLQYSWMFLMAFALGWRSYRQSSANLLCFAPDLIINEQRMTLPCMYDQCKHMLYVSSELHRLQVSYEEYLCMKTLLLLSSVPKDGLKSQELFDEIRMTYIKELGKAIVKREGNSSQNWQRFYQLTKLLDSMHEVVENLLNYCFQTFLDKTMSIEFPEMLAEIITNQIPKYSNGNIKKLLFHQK

In test [2] the target is T2, Alpha-1A adrenergic receptor (Homo sapiens, UniProt P35348).
T2 sequence (P35348 whole entry): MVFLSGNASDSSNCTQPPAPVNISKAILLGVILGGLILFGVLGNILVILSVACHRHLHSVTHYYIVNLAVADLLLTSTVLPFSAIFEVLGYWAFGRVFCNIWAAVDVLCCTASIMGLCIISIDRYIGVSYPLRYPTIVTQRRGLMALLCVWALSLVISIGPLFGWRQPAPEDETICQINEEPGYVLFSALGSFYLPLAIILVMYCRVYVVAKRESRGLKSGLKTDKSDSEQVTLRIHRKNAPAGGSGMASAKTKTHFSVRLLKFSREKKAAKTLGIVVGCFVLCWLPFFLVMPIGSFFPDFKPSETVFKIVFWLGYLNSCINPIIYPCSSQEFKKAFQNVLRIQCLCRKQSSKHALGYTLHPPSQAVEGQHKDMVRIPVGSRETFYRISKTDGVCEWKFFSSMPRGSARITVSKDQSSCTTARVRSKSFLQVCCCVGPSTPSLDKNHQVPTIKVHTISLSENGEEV
It counts as functional, cell-based.

The target of test [3] is Growth hormone secretagogue receptor type 1 (Homo sapiens, UniProt Q92847).
Growth hormone secretagogue receptor type 1, sequence (Q92847 whole entry): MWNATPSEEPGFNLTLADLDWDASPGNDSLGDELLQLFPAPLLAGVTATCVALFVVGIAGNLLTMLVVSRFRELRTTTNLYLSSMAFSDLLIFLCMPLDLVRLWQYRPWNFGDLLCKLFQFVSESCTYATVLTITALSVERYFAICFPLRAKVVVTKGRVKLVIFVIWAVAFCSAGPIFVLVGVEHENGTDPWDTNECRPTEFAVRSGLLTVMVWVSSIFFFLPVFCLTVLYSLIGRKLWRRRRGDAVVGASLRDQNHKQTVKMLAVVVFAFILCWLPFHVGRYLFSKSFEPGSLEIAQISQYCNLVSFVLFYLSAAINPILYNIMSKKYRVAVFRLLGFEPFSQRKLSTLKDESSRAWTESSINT
Test [4] has as its target Adenosine receptor A2a (Homo sapiens, UniProt P29274).
Test [5] deals with Glutamate receptor ionotropic, NMDA 1 (Rattus norvegicus, UniProt P35439).
Test [6] has as its target T3, Prostaglandin G/H synthase 1 (Rattus norvegicus, UniProt Q63921).
T3 sequence (Q63921 whole entry): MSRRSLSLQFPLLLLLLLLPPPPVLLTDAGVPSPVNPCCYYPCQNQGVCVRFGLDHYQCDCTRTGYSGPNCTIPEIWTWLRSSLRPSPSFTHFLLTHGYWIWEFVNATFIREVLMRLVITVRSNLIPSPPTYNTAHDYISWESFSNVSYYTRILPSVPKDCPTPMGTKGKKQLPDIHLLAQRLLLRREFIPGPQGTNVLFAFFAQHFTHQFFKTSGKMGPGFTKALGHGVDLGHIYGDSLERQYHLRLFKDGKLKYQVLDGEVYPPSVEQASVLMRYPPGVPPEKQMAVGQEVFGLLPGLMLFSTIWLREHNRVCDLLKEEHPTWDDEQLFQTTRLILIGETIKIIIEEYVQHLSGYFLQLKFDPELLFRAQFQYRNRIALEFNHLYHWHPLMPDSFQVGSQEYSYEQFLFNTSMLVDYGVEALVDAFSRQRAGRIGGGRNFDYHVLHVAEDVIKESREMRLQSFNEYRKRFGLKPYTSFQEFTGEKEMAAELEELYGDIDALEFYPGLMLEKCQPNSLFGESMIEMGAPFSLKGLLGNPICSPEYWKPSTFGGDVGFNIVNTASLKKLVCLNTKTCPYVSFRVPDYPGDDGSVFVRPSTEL
It counts as functional.

Test [7] has as its target Cannabinoid receptor 1 (Homo sapiens, UniProt P21554). Type of test: functional, cell-based.
Test [8] deals with Gamma-aminobutyric acid receptor subunit alpha-1 (Rattus norvegicus, UniProt P62813).
Gamma-aminobutyric acid receptor subunit alpha-1, sequence (P62813 whole entry): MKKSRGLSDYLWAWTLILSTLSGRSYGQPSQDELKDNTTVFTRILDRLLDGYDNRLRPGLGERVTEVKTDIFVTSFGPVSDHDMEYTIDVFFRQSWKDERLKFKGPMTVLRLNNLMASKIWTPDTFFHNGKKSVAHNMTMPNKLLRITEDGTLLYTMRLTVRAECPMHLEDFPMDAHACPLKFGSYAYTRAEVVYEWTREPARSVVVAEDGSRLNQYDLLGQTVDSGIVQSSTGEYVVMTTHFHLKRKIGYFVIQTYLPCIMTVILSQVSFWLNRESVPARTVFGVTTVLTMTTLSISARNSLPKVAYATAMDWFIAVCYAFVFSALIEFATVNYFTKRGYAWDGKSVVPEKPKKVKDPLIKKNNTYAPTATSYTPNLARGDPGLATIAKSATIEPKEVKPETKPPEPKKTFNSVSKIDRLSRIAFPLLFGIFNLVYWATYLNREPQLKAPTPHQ
The target of test [9] is T4, Muscarinic acetylcholine receptor M2 (Homo sapiens, UniProt P08172).
T4 sequence (P08172 whole entry): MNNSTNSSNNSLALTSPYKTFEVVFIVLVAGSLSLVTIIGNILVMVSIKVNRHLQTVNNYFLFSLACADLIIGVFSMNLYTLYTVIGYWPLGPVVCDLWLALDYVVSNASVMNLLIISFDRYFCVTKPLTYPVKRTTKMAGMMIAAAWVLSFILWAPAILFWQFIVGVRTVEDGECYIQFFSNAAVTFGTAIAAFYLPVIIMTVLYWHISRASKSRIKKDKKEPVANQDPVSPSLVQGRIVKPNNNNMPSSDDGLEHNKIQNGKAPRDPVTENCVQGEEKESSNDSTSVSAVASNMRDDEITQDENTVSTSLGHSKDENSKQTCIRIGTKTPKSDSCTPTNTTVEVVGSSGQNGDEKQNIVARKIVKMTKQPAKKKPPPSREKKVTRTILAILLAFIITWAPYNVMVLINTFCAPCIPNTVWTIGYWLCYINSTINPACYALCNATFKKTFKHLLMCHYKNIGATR
Type of test: functional, cell-based.

Test [10] has as its target Mu-type opioid receptor (Homo sapiens, UniProt P35372). Nature of the test: biochemical. It counts as functional.
Note: assay procedure not described here.

Cannabinoid receptor 1, sequence (P21554 whole entry): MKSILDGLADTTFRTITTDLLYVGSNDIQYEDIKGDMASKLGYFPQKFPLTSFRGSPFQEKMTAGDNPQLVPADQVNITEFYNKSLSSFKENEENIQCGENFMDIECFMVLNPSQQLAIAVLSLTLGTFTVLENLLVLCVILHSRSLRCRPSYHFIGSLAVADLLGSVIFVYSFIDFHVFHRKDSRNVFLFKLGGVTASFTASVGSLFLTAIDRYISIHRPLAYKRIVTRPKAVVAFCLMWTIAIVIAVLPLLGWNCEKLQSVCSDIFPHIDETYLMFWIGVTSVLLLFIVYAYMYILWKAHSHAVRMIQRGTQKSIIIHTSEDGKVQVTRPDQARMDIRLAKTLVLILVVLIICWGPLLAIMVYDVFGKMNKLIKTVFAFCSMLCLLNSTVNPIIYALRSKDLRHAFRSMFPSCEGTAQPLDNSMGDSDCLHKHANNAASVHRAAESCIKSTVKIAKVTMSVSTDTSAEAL
Mu-type opioid receptor, sequence (P35372 whole entry): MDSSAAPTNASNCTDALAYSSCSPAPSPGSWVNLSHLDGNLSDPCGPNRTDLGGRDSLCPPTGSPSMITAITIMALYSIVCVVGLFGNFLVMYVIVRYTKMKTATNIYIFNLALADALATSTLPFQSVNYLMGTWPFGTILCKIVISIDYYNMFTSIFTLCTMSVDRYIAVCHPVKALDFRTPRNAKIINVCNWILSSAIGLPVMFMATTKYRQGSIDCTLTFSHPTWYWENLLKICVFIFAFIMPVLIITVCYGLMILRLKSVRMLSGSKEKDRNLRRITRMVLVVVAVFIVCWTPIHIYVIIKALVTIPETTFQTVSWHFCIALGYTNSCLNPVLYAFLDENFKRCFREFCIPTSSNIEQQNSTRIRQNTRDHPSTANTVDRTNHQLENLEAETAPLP
Adenosine receptor A2a, sequence (P29274 whole entry): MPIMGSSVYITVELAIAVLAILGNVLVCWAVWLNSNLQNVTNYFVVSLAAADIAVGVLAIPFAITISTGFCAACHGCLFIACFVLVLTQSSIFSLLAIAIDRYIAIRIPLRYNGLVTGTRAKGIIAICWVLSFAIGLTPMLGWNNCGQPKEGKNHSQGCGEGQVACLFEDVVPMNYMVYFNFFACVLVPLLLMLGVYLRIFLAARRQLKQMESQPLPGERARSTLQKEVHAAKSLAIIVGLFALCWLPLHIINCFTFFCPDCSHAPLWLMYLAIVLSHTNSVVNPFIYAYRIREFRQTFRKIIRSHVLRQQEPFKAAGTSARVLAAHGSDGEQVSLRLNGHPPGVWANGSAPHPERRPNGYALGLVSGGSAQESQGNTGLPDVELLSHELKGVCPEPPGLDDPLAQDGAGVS

As for `CC(=O)OCC(=O)[C@@]1(O)CC[C@H]2[C@@H]3CCC4=CC(=O)CC[C@]4(C)C3=CC[C@@]21C` [ANECORTAVE ACETATE], the AC50 is 1.7 µM in test [1]; greater than 30 µM in test [2]; greater than 10 µM in test [3]; greater than 10 µM in test [4]; greater than 10 µM in [5]; greater than 10 µM in test [6]. The AC50 was greater than 30 µM in [7], greater than 10 µM in [8] and greater than 10 µM in [9].

As to `CS(=O)(=O)OCCCCOS(C)(=O)=O` [BUSULFAN], the AC50 in test [2], in test [3], in [4], in test [5], in test [6] and in test [10] was greater than 30 µM throughout. The AC50 in [7] and in test [9] was greater than 30 µM in each case.

For `C=CC1=C(C(=O)O)N2C(=O)[C@@H](NC(=O)/C(=N\OCC(=O)O)c3csc(N)n3)[C@H]2SC1` [CEFIXIME], the AC50 in test [2], in test [3], in [4], in test [6], in test [10] and in test [7] was greater than 30 µM each time. In test [9], the AC50 was greater than 30 µM.

`N[C@H](Cc1cc(I)c(Oc2cc(I)c(O)c(I)c2)c(I)c1)C(=O)O` [DEXTROTHYROXINE]: the AC50 in [1] was 25 µM; in [2], greater than 30 µM; in test [3], greater than 30 µM; in test [4], greater than 30 µM; in test [5], greater than 10 µM; in test [6], greater than 30 µM. For the same compound, the results for the AC50 in [7], in [8] and in test [9] were greater than 30 µM, greater than 10 µM and greater than 10 µM, respectively.

As for `Clc1ccc2c(c1)C(c1ccccc1)=NCc1nncn1-2` [ESTAZOLAM], the AC50 is greater than 30 µM in [1]; greater than 30 µM in [2]; greater than 30 µM in test [3]; greater than 30 µM in test [4]; greater than 10 µM in [5]; greater than 30 µM in test [6]. The figures for the AC50 in [7], in [8] and in test [9] were greater than 30 µM, greater than 10 µM and greater than 10 µM, respectively.

Turning to `CC(=O)OCC(CCn1cnc2cnc(N)nc21)COC(C)=O` [FAMCICLOVIR], the AC50 is greater than 30 µM in [1]; greater than 30 µM in test [2]; greater than 30 µM in test [3]; greater than 30 µM in [4]; greater than 10 µM in test [5]; greater than 30 µM in [6]. Also, the AC50 in test [7] is greater than 30 µM; in [8], greater than 10 µM; in test [9], greater than 10 µM.

For the compound `Nc1ccn([C@@H]2O[C@H](CO)[C@@H](O)C2(F)F)c(=O)n1` [GEMCITABINE], the AC50 in test [1] is greater than 30 µM; in test [2], greater than 30 µM; in test [3], greater than 30 µM; in test [4] it was greater than 30 µM; in test [5], greater than 10 µM; in [6], greater than 30 µM. For the same compound, the AC50 is greater than 30 µM in test [7], greater than 10 µM in test [8] and greater than 10 µM in test [9].

`COC1=C(OC)C(=O)C(CCCCCCCCCCO)=C(C)C1=O` [IDEBENONE]: the AC50 in [1] was greater than 30 µM; in test [2], greater than 30 µM; in [3], greater than 30 µM; in [4] it was greater than 30 µM; in test [5], greater than 10 µM; in test [6], greater than 30 µM. Further, the concentration at half-maximal activity (AC50) is greater than 30 µM in [7], greater than 10 µM in test [8] and greater than 10 µM in test [9].

For `CC(=O)Nc1c(I)c(C(=O)N[C@H]2C(O)O[C@H](CO)[C@@H](O)[C@@H]2O)c(I)c(N(C)C(C)=O)c1I` (stereo partly drawn) [METRIZAMIDE], the AC50 in [1] was greater than 10 µM; in test [2] it was greater than 30 µM; in [3], greater than 10 µM; in test [4], greater than 10 µM; in test [5], greater than 10 µM; in test [6], greater than 10 µM. For the same compound, the figures for the AC50 in test [7], in [8] and in [9] were greater than 30 µM, greater than 30 µM and greater than 10 µM, respectively.

As for `CCOC(=O)Nc1ccc2c(c1)N(C(=O)CCN1CCOCC1)c1ccccc1S2` [MORICIZINE], the AC50 in test [1], in [2], in test [3], in test [4], in test [5] and in test [6] was greater than 30 µM in each case. The AC50 in test [7], in test [8] and in test [9] was greater than 30 µM throughout.

`O=C1CN=C(c2ccccc2)c2cc(Cl)ccc2N1` [NORDAZEPAM]: the AC50 in [1] was greater than 30 µM; in [2], greater than 30 µM; in test [3] it was greater than 30 µM; in test [4] it was greater than 30 µM; in test [5], greater than 10 µM; in [6] it was greater than 30 µM. Moreover, the results for the AC50 in [7], in test [8] and in test [9] were greater than 30 µM, greater than 10 µM and greater than 10 µM, respectively.

Turning to `C[n+]1ccccc1/C=N/O` [PRALIDOXIME], the AC50 in test [2], in test [5], in [10], in test [7] and in [8] was greater than 30 µM in each case.

In the case of `CN1[C@@H]2CC[C@H]1C[C@@H](OC(=O)c1c[nH]c3ccccc13)C2` [TROPISETRON], the AC50 in [2], in test [3], in test [4], in test [6], in [10] and in test [7] was greater than 30 µM each time. Also, the AC50 in test [8] and in test [9] was greater than 30 µM each time.

On to `C=CC(N)CCC(=O)O` (stereo not drawn) [VIGABATRIN], for which the AC50 in test [1] is greater than 10 µM; in test [2], greater than 30 µM; in test [3], greater than 10 µM; in test [4] it was greater than 10 µM; in [5], greater than 10 µM; in test [6], greater than 10 µM. Moreover, the AC50 in [7] is greater than 30 µM; in test [8], greater than 10 µM; in test [9] it was greater than 10 µM.

As to COLISTIN, the AC50 in test [2], in test [5], in test [10], in [7] and in test [8] was greater than 30 µM each time.
